For 1 compound, IC50 and GI50 results are on record in US20250352539A1, “COMBINATION THERAPY FOR TREATING CANCER” (AstraZeneca AB, priority 2022, published 2025).

Read-outs that look alike come from different tables or passages of the source.

Holding throughout (assay type): cell-based
Test [1] concerns SUM149PT 53BP1 WT (CNTR) cells. Briefly: Clonogenic proliferation assay (14 days, SRB). The following applies: Homo sapiens; SUM149PT CNTR; monotherapy; read-out: IC50, clonogenic growth. The protocol: (§1) Parental BRCA1 mutant SUM149PT breast cancer cell line (Elstrodt 2006) were obtained from AstraZeneca Cell Bank at Alderley Park, Macclesfield. Cells were routinely grown in Ham's F12 media containing 5% foetal calf serum, 1% glutamine (2 mM), 500 ng/ml hydrocortisone and 5% insulin. SUM149PT 53BP1 WT (CNTR) and 53BP1 null (KO) cell pools were generated by CRISPR-Cas9 technology. Short guide (sg) RNA targeting TP53BP1 on exon 10 (GAGTAGATCGGAAAGCATC) and a non-targeting CNTR guide (GAGTAGATCGGAAAGCATC) were designed and cloned into a lentiviral vector containing a mClover3 cassette for green fluorescence signal and hygromycin cassette for selection (pKLV2-U6gRNA (Bbsl)-EF1a-mClover3-T2A-HygR-W). Lentiviruses were generated from both KO and CNTR (sg) RNA and Cas9 (pKLVEF1a-Cas9Bsd-W) plasmids and parental cells were transduced first with Cas9 lentiviruses followed by blasticidin selection and then with KO and CNTR lentiviruses followed by hygromycin selection. Loss of 53BP1 was verified by analysing 53BP1 protein expression from whole cell lysates by western blotting (Novus, NB100-304, 1:1000 dilution).
(§2) Cells were seeded onto 6-well plates, three replicates per cell line, and 24 hours later the cells were dosed with AZD6738/AZD5305. For monotherapies the cells were dosed with a 6-point concentration response of AZD6738 (0 to 0.64 μM) or AZD5305 (0 to 1 μM). For combination treatments single dose of AZD5305 (10 nM) was used with a 5-point concentration response of AZD6738 (0 to 0.64 μM) for 53BP1 KO cells. Cells were grown for 14 days for colony formation without media changes. Cells were fixed with 10% TCA (Tricloroacetic acid). 14 days after dosing any formed colonies were stained with 0.057% SRB (sulforhodamine B acid), imaged with GelCount™ (Oxford OPTRONIX) at 600 dpi resolution and the stained colony growth intensity was measured using plate reader with OD @[…]. Dose response curves were generated and IC50 concentrations were calculated using GraphPad PRISM software.

Test [2] has as its system SUM149PT 53BP1 KO cell pools. Briefly: Clonogenic proliferation assay (14 days, SRB). The settings on record: Homo sapiens; SUM149PT 53BP1 KO; monotherapy; read-out: IC50, clonogenic growth. The protocol:
as §1, §2

For test [3], the system named is LoVo. Description: 144-hour CellTiter-Glo 2.0 proliferation assay. The settings on record: Homo sapiens; LoVo colorectal; monotherapy; read-out: mono GI50. On the procedure: (§3) Combination profiling was carried out in a panel of cancer cell lines utilising Horizon Discovery's High Throughput Screening platform.
(§4) Cell lines that have been preserved in liquid nitrogen are thawed and expanded in growth media (see Table 1). Once cells have reached expected doubling times, screening begins. Cells are seeded in 25 μl of growth media in black 384-well tissue culture treated plates (seeding density as noted in Table 11).
(§5) Cells are equilibrated in assay plates via centrifugation and placed at 37° C. 5% CO2 for twenty-four hours before treatment.
(§6) Compounds are transferred to assay plates using and Echo acoustic liquid handling system. 25 nl of each compound was added at the appropriate concentration for all combination dose points. Therefore, final assay volume would be […]. Assay plates are incubated with compound for 6 days and are then analysed using CellTiter-Glo 2.0. All data points are collected via automated processes and are subject to quality control and analysed.
(§7) Growth Inhibition (GI) is reported as a measure of cell growth. The GI percentages are calculated by applying the following test and equation: […]
(§8) where T is the signal measure for a test article, V is the untreated/vehicle-treated control measure, and Vo is the untreated/vehicle control measure at time zero (also colloquially referred as T0 plates). This formula is derived from the Growth Inhibition calculation used in the National Cancer Institute's NCI-60 high throughput screen. For the purposes of this report, all data analysis was performed in Growth Inhibition (except where noted).
For orientation: Cellular ATP, detected with luciferase, serves as a proxy for viable cell number.

Test [4] concerns PA-1. Description: 144-hour CellTiter-Glo 2.0 proliferation assay. The settings on record: Homo sapiens; PA-1 ovarian; monotherapy; read-out: mono GI50. On the procedure: as §3, §4, §5, §6, §7, §8
Test [5] deals with HCT-116. Briefly: 144-hour CellTiter-Glo 2.0 proliferation assay. The following applies: Homo sapiens; HCT-116 colorectal; monotherapy; read-out: mono GI50. On the procedure:
as §3, §4, §5, §6, §7, §8

In test [6] the test system is GCIY. Description: 144-hour CellTiter-Glo 2.0 proliferation assay. The settings on record: Homo sapiens; GCIY gastric; monotherapy; read-out: mono GI50. The protocol:
as §3, §4, §5, §6, §7, §8

Test [7] has as its system Gp2D. Briefly: 144-hour CellTiter-Glo 2.0 proliferation assay. The following applies: Gp2D colorectal; monotherapy; read-out: mono GI50. The protocol:
as §3, §4, §5, §6, §7, §8

The test system of test [8] is IM-95. Description: 144-hour CellTiter-Glo 2.0 proliferation assay. The settings on record: Homo sapiens, IM95; IM-95 gastric; monotherapy; read-out: mono GI50. On the procedure:
as §3, §4, §5, §6, §7, §8

The subject of test [9] is OVK18. Description: 144-hour CellTiter-Glo 2.0 proliferation assay. The following applies: OVK18 ovarian; monotherapy; read-out: mono GI50. On the procedure: as §3, §4, §5, §6, §7, §8
The subject of test [10] is SW620. Description: 144-hour CellTiter-Glo 2.0 proliferation assay. The settings on record: Homo sapiens, SW-620; SW620 colorectal; monotherapy; read-out: mono GI50. The protocol: as §3, §4, §5, §6, §7, §8
The subject of test [11] is LMSU. Briefly: 144-hour CellTiter-Glo 2.0 proliferation assay. The settings on record: LMSU gastric; monotherapy; read-out: mono GI50. On the procedure: as §3, §4, §5, §6, §7, §8
For test [12], the system named is TOV-21G. Briefly: 144-hour CellTiter-Glo 2.0 proliferation assay. The following applies: Homo sapiens, TOV21G; TOV-21G ovarian; monotherapy; read-out: mono GI50. The protocol: as §3, §4, §5, §6, §7, §8
Test [13] concerns LS-513. Description: 144-hour CellTiter-Glo 2.0 proliferation assay. The settings on record: Homo sapiens; LS-513 colorectal; monotherapy; read-out: mono GI50. The protocol:
as §3, §4, §5, §6, §7, §8

Test [14] deals with SW837. Briefly: 144-hour CellTiter-Glo 2.0 proliferation assay. The settings on record: Homo sapiens; SW837 colorectal; monotherapy; read-out: mono GI50. The protocol:
as §3, §4, §5, §6, §7, §8

The test system of test [15] is BxPC-3. Briefly: 144-hour CellTiter-Glo 2.0 proliferation assay. The following applies: monotherapy, read-out: mono GI50. The protocol:
as §3, §4, §5, §6, §7, §8

The subject of test [16] is KURAMOCHI
Description: 144-hour CellTiter-Glo 2.0 proliferation assay. The following applies: KURAMOCHI ovarian; monotherapy; read-out: mono GI50. On the procedure:
as §3, §4, §5, §6, §7, §8

Test [17] has as its system OV7. Description: 144-hour CellTiter-Glo 2.0 proliferation assay. The settings on record: OV7 ovarian; monotherapy; read-out: mono GI50. On the procedure:
as §3, §4, §5, §6, §7, §8

Test [18] has as its system OVSAHO. Description: 144-hour CellTiter-Glo 2.0 proliferation assay. The following applies: Homo sapiens; OVSAHO ovarian; monotherapy; read-out: mono GI50. On the procedure: as §3, §4, §5, §6, §7, §8

In the case of `C[C@@H]1COCCN1c1cc(C2([S@](C)(=N)=O)CC2)nc(-c2ccnc3[nH]ccc23)n1` [AZD6738, 4-{4-[(3R)-3-Methylmorpholin-4-yl]-6-[1-((R)—S-methylsulfonimidoyl)cyclopropyl]pyrimidin-2-yl}-1H-pyrrolo[2,3-b]-pyridine], the IC50 in [1] and in [2] was about 630 nM throughout. The GI50 (usually the concentration at which growth is held to half of that of the control) turned out to be 401 nM in [3]; 1220 nM in test [4]; 687 nM in [5]; 179 nM in test [6]; 501 nM in test [7]; 250 nM in test [8]. Moreover, the GI50 in test [9] came out at 921 nM; in test [10], 853 nM; in [11] it was 1710 nM; in test [12], 374 nM; in test [13], 645 nM; in test [14], 924 nM. Further, the 50% growth inhibitory concentration (GI50) came to 1090 nM in test [15] (BxPC-3 pancreatic); 1080 nM in test [15] (Homo sapiens, BXPC-3, BxPC-3 pancreatic); 728 nM in test [16]; 1920 nM in test [17]; 581 nM in [18].
